Test results: paper PMC7682989, “Large domain movements through the lipid bilayer mediate substrate release and inhibition of glutamate transporters” (eLife, 2020)
Numbering of substitutions follows the chain as printed. Each block holds one molecule with its values, some of them ahead of it.

How the values were obtained:
GltPh [1] = biological target: T1, GltPh (Pyrococcus horikoshii, UniProt O59010, D37H/K40H/K125H/K132H/K223H/K264H/E368H); test: cryo-EM structure; type: binding; settings: outward-facing state, MSP1E3 nanodiscs; 200 mM NaCl, 10 mM DL-TBOA, pH 7.4
T1 construct: gene PH1295; C-terminal His8 cut by thrombin; E. coli DH10B; homotrimer; DDM (ITC) or MSP1E3 nanodiscs (cryo-EM)
T1 sequence (O59010 1-425 D37H/K40H/K125H/K132H/K223H/K264H/E368H limits assumed): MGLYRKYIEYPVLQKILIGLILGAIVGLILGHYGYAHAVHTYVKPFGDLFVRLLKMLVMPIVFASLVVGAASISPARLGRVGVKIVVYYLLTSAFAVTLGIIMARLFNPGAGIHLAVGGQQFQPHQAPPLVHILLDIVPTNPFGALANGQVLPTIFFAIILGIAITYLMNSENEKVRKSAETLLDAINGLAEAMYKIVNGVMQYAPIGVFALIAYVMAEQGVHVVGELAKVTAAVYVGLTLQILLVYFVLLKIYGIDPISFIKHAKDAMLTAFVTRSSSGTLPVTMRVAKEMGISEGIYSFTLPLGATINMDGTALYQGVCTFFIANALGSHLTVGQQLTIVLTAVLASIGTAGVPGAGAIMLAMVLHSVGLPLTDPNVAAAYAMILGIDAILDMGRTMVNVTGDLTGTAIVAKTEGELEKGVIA

GltPh [2] = biological target: T2, GltPh (Pyrococcus horikoshii, UniProt O59010, D37H/K40H/K55C/K125H/K132H/K223H/K264H/C321A/A364C/E368H); test: cryo-EM structure; type: binding; settings: inward-facing, Hg2+-crosslinked K55C/A364C; MSP1E3 nanodiscs; 200 mM NaCl, 1 mM L-asp, pH 7.4
T2 construct: gene PH1295; C-terminal His8 cut by thrombin; E. coli DH10B; homotrimer; DDM (ITC) or MSP1E3 nanodiscs (cryo-EM)
T2 sequence (O59010 1-425 D37H/K40H/K55C/K125H/K132H/K223H/K264H/C321A/A364C/E368H limits assumed): T1 sequence (O59010 1-425 D37H/K40H/K125H/K132H/K223H/K264H/E368H limits assumed) with K55C, C321A, A364C

GltPh [3] = biological target: T2, GltPh; test: isothermal titration calorimetry; type: binding; settings: inward-facing, Hg2+-crosslinked K55C/A364C; DDM; 200 mM NaCl, pH 7.4, 15 °C; n 0.8; structure in nanodiscs 3.71 Å
[4] = biological target: GltPh, the fully functional seven-histidine mutant referred to as wildtype (WT) (UniProt O59010); test: cryo-EM structure; single-particle cryo-EM of GltPh reconstituted into MSP1E3 nanodiscs (E. coli polar lipid extract : egg phosphatidylcholine 3:1); 20 mM Hepes/Tris pH 7.4, 200 mM NaCl with 1 mM L-asp, 10 mM DL-TBOA, 10 mM TFB-TBOA or NaCl only; 3D classes without symmetry, then C3 refinement
[5] = biological target: GltPh-K55C/C321A/A364C, cross-linked with HgCl2 (GltPh^IFS) (UniProt O59010); test: as above

Molecule: NC(C(=O)O)C(OCc1ccccc1)C(=O)O (racemic) [DL-TBOA, DL-threo-β-benzyloxyaspartate]
cryo-EM structure (GltPh [1]): wild type outward-facing GltPh in complex with TBOA (GltPh^OFS-TBOA)

Molecule: N[C@@H](CC(=O)O)C(=O)O [L-asp]
cryo-EM structure (GltPh [2]): bound to L-asp (GltPh^IFS-Asp)

Molecule: N[C@H](C(=O)O)[C@H](OCc1cccc(NC(=O)c2ccc(C(F)(F)F)cc2)c1)C(=O)O [TFB-TBOA, (2S,3S)−3-[3-[4-(trifluoromethyl)benzoylamino]benzyloxy]aspartate]
Kd (GltPh [3]): 3.8 µM

stoichiometry N [4]: 3
Molecule: GltPh, the fully functional seven-histidine mutant referred to as wildtype (WT) (from UniProt O59010 1-417) (natural protein)

stoichiometry N [5]: 3
Molecule: GltPh-K55C/C321A/A364C, cross-linked with HgCl2 (GltPh^IFS) (from UniProt O59010 1-425) (natural protein)
